Measured values taken from US20040197268A1, “Method of imaging amyloid deposits using substituted rhodanine derivatives” (priority 1999, published 2004).
Where “and” joins values, the source holds several entries; their conditions need not be identical. Equal entries are not always repeated. Structures can show the parent of a compound that is named as a salt.

Columns and labels:
Aβ(1-42) = target: T1, Aβ(1-42) (Homo sapiens, UniProt P05067); experiment: BATYM Assay (Aβ(1-42) aggregation, Thioflavin T fluorescence); format: biochemical; conditions: Aβ 1-42 final concentration 100 μM, PBS pH 7.4, 37° C., 1 day, ThT fluorescence
T1 construct: Required Aβ(1-42)(California Peptide) was dried from its hexafluoroisopropanol (HFIP) stock solution; purchased California Peptide
Experimental: Required Aβ(1-42)(California Peptide) was dried from its hexafluoroisopropanol (HFIP) stock solution. The Aβ(1-42) was dissolved in dimethylsulfoxide (DMSO) and then mixed with phosphate buffered saline, (PBS) (pH 7.4). The mixed Aβ(1-42) solution was filtered with a 0.2 μm Omnipore membrane syringe filter (Millipore, Bedford, Mass.). The compound to be tested in DMSO (50 times concentrate) was put into each well (0.5 μL/well) of a 96-well plate. The Aβ(1-42) solution was added into each well (24.5 μL/well). The plate was centrifuged at 1,000 g for 5 minutes and incubated at 37° C. for 1 day (Aβ 1-42; final concentration 100 μM).
After incubation Thioflavin T (ThT) (30 μM) solution in glycine-NaOH buffer (pH 8.5, 50 mM) was added into each well (250 μL/well), fluorescence was measured (ex. 440/20 nm; em 485/20 nm) using a fluorescence plate reader. The inhibitory activity was calculated as the reduction of fluorescence with the following formula:
inhibition (%)={(F(Aβ)−F(Aβ+compound)}/{F(Aβ)−F(solvent+compound)}×100
The IC50s were calculated by a curve fitting program using the following equation. The data were obtained from two different experiments in triplicate.
x=concentration of tested compound (M),

Aβ(1-40) [1] = target: T2, Aβ(1-40) (Homo sapiens, UniProt P05067); experiment: BASST (Beta-Amyloid Self-Seeding, ThioflavinT), inhibitors of self-seeded amyloid fibril growth; format: biochemical; conditions: 30 μM soluble Aβ(1-40), pH 7.5, 37° C., 3 to 5 hours, thioflavin T fluorescence
T2 construct: Soluble Aβ(1-40) peptide (Bachem, Torrance, Calif.); purchased Bachem, Torrance, Calif
Experimental: BASST (Beta-Amyloid Self-Seeding, ThioflavinT)
(§1) An assay for inhibitors of self-seeded amyloid fibril growth
Assay Buffer—50 mM sodium phosphate, pH 7.5, 100 mM NaCl, 0.02% NaN3, 1 M urea (filter and store at 4° C.).
Soluble Aβ(1-40)—2.2 mg/mL in deionized H2O (store in aliquots at −20° C., keep on ice when thawed) will self-seed after 1 week storage. Typically, the solution should be stored until no lag phase is seen in the assay.
Final assay conditions: 30 μM soluble Aβ(1-40) in deionized water in assay buffer. Compound to be tested is dissolved in DMSO, typically 5-50 mM stock, such that the final concentration of DMSO is <1% v/v in the assay.
Assay: Reaction mixture for 50 assays (on ice) comprised of 1 μL of soluble Aβ(1-40)+13.5 μL assay buffer per assay. The following are the amounts of the components of the reaction mixture that result in each of the 50 assay wells.
1) Prepare the reaction mix above by mixing the components and storing on ice.
2) Pipet […] of reaction mixture into each of 50 wells of a polystyrene U-bottom 96-well microtiter plate (Corning 25881-96) on ice.
(§2) 3) Add 1.7 mL of diluted compound to be tested to each well in a column of eight, including solvent control. Serial 3-fold dilutions from 1 mM (100 μM final) in assay buffer−urea=7 dilutions+zero. Each 96-well plate can therefore accommodate 11 samples+1 Congo Red control (0.039-5 μM final in 2-fold steps).
4) Seal the plate with aluminum film and incubate for 10 minutes on ice.
5) Raise the temperature to 37° C. and incubate for 3 to 5 hours (depends on the lot of the peptide).
6) Remove the aluminum film and add 250 μL/well of 5 μM thioflavin T (ThT) [T-3516, Sigma-Aldrich] in 50 mM glycine-NaOH, pH 8.5. Read fluorescence on a plate reader (ex=440 nm/20 nm; em=485 nm/20 nm) within 5 minutes.

Aβ(1-40) [2] = target: T2, Aβ(1-40); experiment: BASSR (Beta-Amyloid Self-Seeding Radioassay), inhibitors of self-seeded amyloid fibril growth; format: biochemical; conditions: 30 μM soluble Aβ(1-40) + 125I-labeled Aβ(1-40), pH 7.5, 37° C., 3 to 5 hours, filtration
Experimental: BASSR (Beta-Amyloid Self-Seeding Radioassay)
as §1
Assay Buffer—50 mM sodium phosphate, pH 7.5, 100 mM NaCl, 0.02% NaN3, 1 M urea (filter and store at 4° C.)
Soluble Aβ(1-40) peptide (Bachem, Torrance, Calif.)—2.2 mg/mL in deionized H2O (stored in aliquots at −20° C., keep on ice when thawed) will self-seed after 1 week storage. Typically, the solution should be stored until no lag phase is seen in the assay.
^125I-labeled Aβ(1-40)—150K-350K cpm/μL in 100% acetonitrile—0.1% trifluoroacetic acid (TFA)—1% β-mercaptoethanol (aliquots stored at −20° C.). ^125I-labeled Aβ(1-40) can be made in accordance with the procedure set forth by H. Levine, III in Neurobiol. Aging, 16:755 (1995), which is hereby incorporated by reference, or this reagent may be purchased from Amersham, Arlington Heights, Ill.
Final assay conditions: 30 μM soluble Aβ(1-40) in deionized water in assay buffer+20-50K cpm ^125I-labeled Aβ(1-40) per assay. Compound to be tested is dissolved in dimethylsulfoxide (DMSO), typically 5-50 mM stock, such that the final concentration of DMSO is <1% v/v in the assay.
Assay: Reaction mixture for 50 assays (on ice) is comprised of 0.1-0.2 μL of […] ^125I-labeled Aβ(1-40)+1 μL of soluble Aβ(1-40)+13.5 μL assay buffer per assay. The following are the amounts of the components of the reaction mixture sufficient for 50 assay wells.
1) Prepare reaction mixture above by mixing components and storing on ice.
2) Pipet 14.5 μL of reaction mixture into each of 50 wells on a polypropylene U-bottom 96-well microtiter plate on ice (Costar 3794).
as §2, with “μL” for “mL”
4) Seal the plate with aluminum film (Beckman 538619) and incubate for 10 minutes on ice.
5) Raise the temperature to 37° C. and incubate for 3 to 5 hours (depending on the lot of the peptide).
6) Remove the aluminum film and add 200 μL/well of ice cold assay buffer with urea, collecting the radiolabeled fibrils by vacuum filtration through 0.2 μm pore size GVWP filters in 96-well plates (Millipore MAGV N22, Bedford, Mass.). Determine the radioactivity of the filters using standard methods well-known to those skilled in the art.

[3] = target: T3, beta amyloid peptide Aβ(1-40) (Homo sapiens, UniProt P05067); experiment: BAPA (Beta-Amyloid Peptide Aggregation), pH 6.0; format: biochemical; conditions: Aβ(1-40) 33 μM, pH 6.0, 2 to 4 hours at room temperature, filtration
T3 construct: 0.5 mg/mL AP (140) peptide in 20% HFIP+0.1 μL/assay radioiodinated ^125I Aβ(1-40)
Experimental: BAPA (Beta-Amyloid Peptide Aggregation)
This assay is used to provide a measure of inhibition by a compound against the aggregation behavior of the beta amyloid peptide.
The purpose of this assay is to provide a higher volume method of assaying the amount of beta amyloid aggregation using an endpoint assay based on filtration. In this assay, hexafluoroisopropanol (HFIP) is used to break down the initial amyloid peptide to a monomer state and use a concentration of 33 μM which is high enough so that aggregation will occur at pH 6.0 in several hours.
β-Amyloid Peptide Aggregation, pH 6.0 (BAPA)
In a 96-well plate (Costar 3794), we add […] 50 mM Phosphate Buffer, pH 6.0, 10 μL 0.5 mg/mL AP (140) peptide in 20% HFIP+0.1 μL/assay radioiodinated ^125I Aβ(1-40) [^125I Aβ(1-40)], and 1 μL of the compound to be tested starting at 50 mM with a concentration of DMSO <1%. Then, we incubate for 2 to 4 hours at room temperature. We stop the reaction with […] of 50 mM phosphate buffer, pH 6.0, and filter it through a 0.2 μm 96-well filter plate (Millipore MAGU N22). We wash the filter plate with 100 μL of the same phosphate buffer. Aggregation was detected on a Microbeta counter after impregnating the filters with Meltilex (1450-441) and is corrected for background.

T3 sequence (P05067 672-711 limits assumed): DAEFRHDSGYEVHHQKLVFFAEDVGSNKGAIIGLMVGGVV
T2 sequence (P05067 672-711 limits assumed): as above
T1 sequence (P05067 672-713 limits assumed): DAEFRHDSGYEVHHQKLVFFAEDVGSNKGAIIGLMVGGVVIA

melting point	IC50 (Aβ(1-42))	IC50 (Aβ(1-40) [1])	IC50 (Aβ(1-40) [2])	IC50 [3]	Molecule
147 to 149 °C	2.32 µM	0.8 µM	> 100 µM	7 µM	CCCCCCN(C)c1ccc(/C=C2\SC(=S)N(CCS(=O)(=O)NC)C2=O)cc1 [Example 2, (Z) 2-{5-[4-(Hexyl-methyl-amino)-benzylidene]-4-oxo-2-thioxo-thiazolidin-3-yl}-ethanesulfonic acid methylamide]
–	> 100 µM	0.22 µM	> 100 µM	30 µM	CCCCCCN(C)c1ccc(/C=C2\SC(=S)N(CCNC(C)=O)C2=O)cc1 [Example 14]
219 to 222 °C	2.91 µM	–	> 100 µM	> 100 µM	CCCCN(CCCC)c1ccc(/C=C2\SC(=S)N(CC(=O)NS(C)(=O)=O)C2=O)cc1 [Example 21, (Z) N-{2-[5-(4-Dibutylamino-benzylidene)-4-oxo-2-thioxo-thiazolidin-3-yl]-acetyl}-methanesulfonamide]
222 °C	3.84 µM	1 µM and 0.8 µM	6.5 µM and 10 µM and 6 µM	–	O=C(CN1C(=O)/C(=C/c2ccc(N3CC[C@@H]4CCCC[C@H]4C3)cc2)SC1=S)NS(=O)(=O)c1ccccc1 [Example 24, (Z) N-(2-{5-[(4aS,8aR)-4(Octahydro-isoquinolin-2-yl)benzylidene]-4-oxo-2-thioxo-thiazolidin-3-yl}-acetyl)-benzenesulfonamide]
191 to 192 °C	2.14 µM	–	6.1 µM and 10 µM	–	CCCCN(CCCC)c1ccc(/C=C2\SC(=S)N(CCS(=O)(=O)NC(=O)c3ccc(F)cc3)C2=O)cc1 [Example 26, (Z) 2-[5-(4-Dibutylamino-benzytidene)-4-oxo-2-thioxo-thiazolidin-3-yl]-ethanesulfonic acid 4-fluoro-benzoylamide]
–	2.55 µM	1 µM	> 100 µM	46 µM	O=C1/C(=C/c2ccc(N3CCC4CCCCC4C3)cc2)SC(=S)N1Cc1cc(=O)c(O)co1 (stereo not drawn) [Example 32, (Z) 3-(5-Hydroxy-4-oxo-4H-pyran-2-ylmethyl)-5-[4-(octahydro-isoquinolin-2-yl)benzylidene]-2-thioxo-thiazolidin-4-one]

Second part, the molecule before the results:

Molecule	melting point	IC50 (Aβ(1-42))	IC50 (Aβ(1-40) [1])	IC50 (Aβ(1-40) [2])	IC50 [3]
CCCCCCN(C)c1ccc(/C=C2\SC(=S)N(CCS(=O)(=O)O)C2=O)cc1 (as salt: sodium) [Example 1, (Z) 2-{5[4-(Hexyl-methyl-amino)benzylidene] 4-oxo-2-thioxo-thiazolidin-3-yl}-ethanesulfonic acid]	> 250 °C	–	–	–	–
CCCCCCN(C)c1ccc(/C=C2\SC(=S)N(CCS(=O)(=O)O)C2=O)cc1 [Example 1, (Z) 2-{5[4-(Hexyl-methyl-amino)benzylidene] 4-oxo-2-thioxo-thiazolidin-3-yl}-ethanesulfonic acid]	–	1.72 µM	1 µM	> 100 µM	23 µM
CCCCCCN(C)c1ccc(/C=C2\SC(=S)N(CS(=O)(=O)O)C2=O)cc1 [Example 15, (Z) {5-[4-(n-Hexylmethylamine)-benzylidene]-4-oxo-2-thioxo-thiazolidin-3-yl}-methanesulfonic acid]	–	3.39 µM	> 100 µM	> 100 µM	8 µM
CCCCN(CCCC)c1ccc(/C=C2\SC(=S)N(Cc3nnn[nH]3)C2=O)cc1 [Example 20, (Z) 5-(4-Dibutylamino-benzylidene)-3(H-tetrazol-5-ylmethyl)-2-thioxo-thiazolidin-4-one]	–	2.04 µM	2 µM	–	> 100 µM
CCCCN(CCCC)c1ccc(/C=C2\SC(=S)N(CC(=O)NS(=O)(=O)c3ccc(F)cc3)C2=O)cc1 [Example 25, (Z) N-{2-[5-(4-Dibutylamino-benzylidene)-4-oxo-2-thioxo-thiazolidin-3-yl]-acetyl}-4-fluoro-benzenesulfonamide]	125 °C	2.38 µM	0.6 µM and 0.5 µM	6 µM	–
CCCC1CCN(c2ccc(/C=C3\SC(=S)N(Cc4nnn[nH]4)C3=O)cc2)CC1 [Example 35]	–	3.31 µM	0.4 µM	15 µM	> 60 µM
(Z) 2-[5-(4-Hexyl-methyl-amino-benzylidene)-4-oxo-2-thioxo-thiazolidin-3-yl]-ethanesulfonic acid 4-fluoro-benzoylamide [Example 40]	–	2.84 µM	–	–	–
